Assays:
GSK3A = GSK3A (Homo sapiens, UniProt P49840); test: KiNativ, OCI cells live cell; format: cell-based; settings: 2 h, labeling site Lys2, peptide […]
NEK1 = NEK1 (Homo sapiens, UniProt Q96PY6); test: KiNativ, OCI cells live cell; format: cell-based; settings: 2 h, labeling site Lys2, peptide […]
eEF2K = eEF2K (Homo sapiens, UniProt O00418); test: KiNativ, OCI cells live cell; format: cell-based; settings: 2 h, labeling site ATP, peptide […]
CDK5 = CDK5 (Homo sapiens, UniProt Q00535); test: KiNativ, OCI cells live cell; format: cell-based; settings: 2 h
Chain of CDK5 (Q00535 whole entry): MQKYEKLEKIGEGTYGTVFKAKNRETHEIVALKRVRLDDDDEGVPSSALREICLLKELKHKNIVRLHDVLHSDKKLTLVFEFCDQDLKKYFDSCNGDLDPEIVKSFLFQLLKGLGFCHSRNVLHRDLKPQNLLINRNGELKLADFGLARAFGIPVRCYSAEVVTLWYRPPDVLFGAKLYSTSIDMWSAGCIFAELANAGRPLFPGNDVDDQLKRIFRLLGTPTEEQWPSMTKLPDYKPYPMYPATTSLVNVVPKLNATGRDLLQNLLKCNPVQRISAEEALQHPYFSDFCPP

TLK1 = molecular target: T1, TLK1 (Homo sapiens, UniProt Q9UKI8); test: KiNativ, OCI cells live cell; format: cell-based; settings: 2 h
T1 sequence (Q9UKI8 1-766): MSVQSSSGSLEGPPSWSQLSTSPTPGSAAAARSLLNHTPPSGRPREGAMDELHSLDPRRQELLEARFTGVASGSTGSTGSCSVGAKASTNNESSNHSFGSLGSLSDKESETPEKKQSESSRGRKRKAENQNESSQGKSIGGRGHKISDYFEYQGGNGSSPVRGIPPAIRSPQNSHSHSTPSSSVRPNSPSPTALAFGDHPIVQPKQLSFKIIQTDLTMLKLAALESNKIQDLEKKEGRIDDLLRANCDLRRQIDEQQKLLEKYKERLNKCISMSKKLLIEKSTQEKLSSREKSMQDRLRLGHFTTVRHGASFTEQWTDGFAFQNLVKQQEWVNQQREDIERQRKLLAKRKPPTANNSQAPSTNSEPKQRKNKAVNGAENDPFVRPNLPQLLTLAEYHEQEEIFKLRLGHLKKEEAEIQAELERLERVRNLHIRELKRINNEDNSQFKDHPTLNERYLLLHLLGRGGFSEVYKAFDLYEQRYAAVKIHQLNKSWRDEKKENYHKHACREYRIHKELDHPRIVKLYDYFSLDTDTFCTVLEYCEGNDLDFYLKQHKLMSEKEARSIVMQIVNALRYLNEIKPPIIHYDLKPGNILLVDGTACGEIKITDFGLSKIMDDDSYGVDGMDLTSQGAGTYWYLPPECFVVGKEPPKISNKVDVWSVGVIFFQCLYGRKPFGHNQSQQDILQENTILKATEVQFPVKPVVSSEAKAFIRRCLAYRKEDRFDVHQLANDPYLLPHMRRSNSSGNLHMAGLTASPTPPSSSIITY

SMG1 = SMG1 (Homo sapiens, UniProt Q96Q15); test: KiNativ, OCI cells live cell; format: cell-based; settings: labeling site ATP
Chain of SMG1 (Q96Q15 whole entry, the tested form may be a part): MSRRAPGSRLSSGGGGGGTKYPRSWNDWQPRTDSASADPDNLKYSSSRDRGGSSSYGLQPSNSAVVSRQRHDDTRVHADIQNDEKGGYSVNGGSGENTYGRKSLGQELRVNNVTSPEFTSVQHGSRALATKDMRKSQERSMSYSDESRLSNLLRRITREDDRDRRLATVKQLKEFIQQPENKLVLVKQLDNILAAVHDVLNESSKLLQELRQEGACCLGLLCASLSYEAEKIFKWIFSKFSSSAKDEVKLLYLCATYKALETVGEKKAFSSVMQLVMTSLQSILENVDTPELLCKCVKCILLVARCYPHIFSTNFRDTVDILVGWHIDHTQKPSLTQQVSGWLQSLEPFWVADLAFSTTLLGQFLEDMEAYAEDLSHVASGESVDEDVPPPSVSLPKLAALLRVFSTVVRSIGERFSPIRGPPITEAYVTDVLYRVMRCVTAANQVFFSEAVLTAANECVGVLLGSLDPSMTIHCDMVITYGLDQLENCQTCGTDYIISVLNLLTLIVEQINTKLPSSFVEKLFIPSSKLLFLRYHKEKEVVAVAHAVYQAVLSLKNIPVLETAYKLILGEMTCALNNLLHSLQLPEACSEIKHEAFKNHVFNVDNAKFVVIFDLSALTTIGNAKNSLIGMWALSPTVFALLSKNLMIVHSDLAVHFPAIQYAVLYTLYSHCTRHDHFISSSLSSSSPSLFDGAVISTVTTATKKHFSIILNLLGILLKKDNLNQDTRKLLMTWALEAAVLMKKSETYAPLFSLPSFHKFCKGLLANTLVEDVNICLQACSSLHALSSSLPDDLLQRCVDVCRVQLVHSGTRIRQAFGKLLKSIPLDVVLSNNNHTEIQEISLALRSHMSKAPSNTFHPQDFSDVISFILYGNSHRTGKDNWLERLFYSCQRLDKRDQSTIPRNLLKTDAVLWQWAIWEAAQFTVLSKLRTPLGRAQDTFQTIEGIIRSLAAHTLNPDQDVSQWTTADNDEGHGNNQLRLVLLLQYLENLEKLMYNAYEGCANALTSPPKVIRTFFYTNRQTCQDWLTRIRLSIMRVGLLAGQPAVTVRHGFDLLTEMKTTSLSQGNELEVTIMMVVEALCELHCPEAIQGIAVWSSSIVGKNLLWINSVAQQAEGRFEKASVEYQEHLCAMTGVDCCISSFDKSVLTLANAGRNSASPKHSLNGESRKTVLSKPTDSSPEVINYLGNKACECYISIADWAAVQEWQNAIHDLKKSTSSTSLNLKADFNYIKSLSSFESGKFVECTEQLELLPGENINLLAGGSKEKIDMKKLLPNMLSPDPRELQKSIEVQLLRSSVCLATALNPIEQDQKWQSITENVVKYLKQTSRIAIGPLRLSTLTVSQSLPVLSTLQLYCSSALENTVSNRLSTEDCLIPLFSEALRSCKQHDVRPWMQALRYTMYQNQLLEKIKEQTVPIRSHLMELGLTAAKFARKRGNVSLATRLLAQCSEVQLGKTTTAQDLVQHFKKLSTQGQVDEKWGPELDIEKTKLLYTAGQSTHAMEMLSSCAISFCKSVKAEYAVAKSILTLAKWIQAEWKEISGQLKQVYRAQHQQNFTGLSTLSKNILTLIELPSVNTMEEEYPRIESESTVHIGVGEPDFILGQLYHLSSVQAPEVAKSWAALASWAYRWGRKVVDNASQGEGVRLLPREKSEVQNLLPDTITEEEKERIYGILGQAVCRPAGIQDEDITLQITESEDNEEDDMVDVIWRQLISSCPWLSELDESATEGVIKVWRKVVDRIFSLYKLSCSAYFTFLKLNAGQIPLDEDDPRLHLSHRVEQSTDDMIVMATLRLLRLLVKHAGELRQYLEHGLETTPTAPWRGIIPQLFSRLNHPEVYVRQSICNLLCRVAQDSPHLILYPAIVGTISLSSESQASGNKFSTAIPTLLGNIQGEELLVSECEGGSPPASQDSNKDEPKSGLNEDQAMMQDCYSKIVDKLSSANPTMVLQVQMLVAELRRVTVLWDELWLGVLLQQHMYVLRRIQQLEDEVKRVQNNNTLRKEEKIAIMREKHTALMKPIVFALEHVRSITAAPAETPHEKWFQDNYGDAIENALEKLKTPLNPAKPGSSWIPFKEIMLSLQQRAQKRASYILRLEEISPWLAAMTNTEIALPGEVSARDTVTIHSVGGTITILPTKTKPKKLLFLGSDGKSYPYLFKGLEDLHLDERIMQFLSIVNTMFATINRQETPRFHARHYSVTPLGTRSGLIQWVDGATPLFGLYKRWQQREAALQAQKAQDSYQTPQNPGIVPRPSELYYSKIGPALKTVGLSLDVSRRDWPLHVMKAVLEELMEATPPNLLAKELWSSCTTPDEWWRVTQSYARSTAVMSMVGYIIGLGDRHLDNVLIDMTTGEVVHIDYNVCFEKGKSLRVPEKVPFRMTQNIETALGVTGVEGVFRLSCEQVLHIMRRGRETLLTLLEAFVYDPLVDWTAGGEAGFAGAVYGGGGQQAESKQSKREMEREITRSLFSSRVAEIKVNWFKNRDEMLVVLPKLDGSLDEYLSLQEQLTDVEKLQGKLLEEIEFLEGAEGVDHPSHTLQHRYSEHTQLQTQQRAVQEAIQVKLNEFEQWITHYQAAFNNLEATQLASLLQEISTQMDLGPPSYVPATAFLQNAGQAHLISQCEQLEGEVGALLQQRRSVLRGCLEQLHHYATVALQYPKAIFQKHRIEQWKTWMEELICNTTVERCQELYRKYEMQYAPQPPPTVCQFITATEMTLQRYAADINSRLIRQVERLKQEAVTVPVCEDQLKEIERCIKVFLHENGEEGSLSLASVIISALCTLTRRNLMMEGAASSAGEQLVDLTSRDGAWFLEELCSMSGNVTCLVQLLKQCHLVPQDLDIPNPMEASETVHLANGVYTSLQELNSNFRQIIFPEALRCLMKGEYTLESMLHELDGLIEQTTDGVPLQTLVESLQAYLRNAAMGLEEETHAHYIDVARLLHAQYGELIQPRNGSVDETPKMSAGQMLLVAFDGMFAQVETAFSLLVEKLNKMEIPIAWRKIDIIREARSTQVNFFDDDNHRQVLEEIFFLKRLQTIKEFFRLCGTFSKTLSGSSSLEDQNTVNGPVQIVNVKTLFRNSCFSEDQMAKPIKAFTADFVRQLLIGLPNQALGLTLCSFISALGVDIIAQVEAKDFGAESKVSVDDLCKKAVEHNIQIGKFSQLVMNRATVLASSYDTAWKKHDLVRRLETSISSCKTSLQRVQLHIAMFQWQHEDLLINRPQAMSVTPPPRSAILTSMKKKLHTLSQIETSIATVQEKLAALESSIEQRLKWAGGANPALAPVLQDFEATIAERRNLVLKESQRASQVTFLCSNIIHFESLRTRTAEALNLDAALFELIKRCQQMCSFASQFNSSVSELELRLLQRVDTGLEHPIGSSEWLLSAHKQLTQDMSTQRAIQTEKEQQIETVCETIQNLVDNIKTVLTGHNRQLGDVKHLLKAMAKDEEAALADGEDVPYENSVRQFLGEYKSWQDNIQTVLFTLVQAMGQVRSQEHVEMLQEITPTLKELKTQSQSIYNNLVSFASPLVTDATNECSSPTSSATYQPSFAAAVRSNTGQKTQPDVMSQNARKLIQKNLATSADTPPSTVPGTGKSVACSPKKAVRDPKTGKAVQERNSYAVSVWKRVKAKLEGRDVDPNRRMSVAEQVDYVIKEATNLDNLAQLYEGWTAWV

RSK2 domain2 = molecular target: T2, RSK2 domain2 (Homo sapiens, UniProt P51812); test: KiNativ, OCI cells live cell; format: cell-based; settings: 2 h, labeling site Lys2, peptide […]
T2 construct: RSK2 domain2

CDK6 = CDK6 (Homo sapiens, UniProt Q00534); test: KiNativ, OCI cells live cell; format: cell-based; settings: 2 h, labeling site Lys2, peptide […]
[1] = system: MSK1 domain1, MSK2 domain1; test: KiNativ, OCI cells live cell; format: cell-based, human; settings: labeling site ATP Loop, peptide VLGTGAYGKVFLVR
Erk5 = Erk5 (Homo sapiens, UniProt Q13164); test: KiNativ, OCI cells live cell; format: cell-based; settings: 2 h, labeling site Lys2, peptide […]
Erk2 = Erk2 (Homo sapiens, UniProt P28482); test: KiNativ, OCI cells live cell; format: cell-based; settings: 2 h, labeling site Lys2, peptide […]
SYK = SYK (Homo sapiens, UniProt P43405); test: KiNativ, OCI cells live cell; format: cell-based
[2] = system: MV4-11, MOLM13, and MOLM13-RES cells; test: Apoptosis assay (annexin V); format: cell-based, human; settings: 20 nM, 24 and 48 hours
Procedure: Apoptosis and CD11b expression assays
At indicated time points, cells were collected and washed with PBS. CD11b expression was measured using anti-CD11b -APC antibody (BioLegend, San Diego, CA). Each sample was suspended in 100uL of FACS buffer (PBS + 4% FBS) with 1uL of antibody, incubated on ice for 15 minutes in the dark and washed once in PBS. DAPI (final concentration 1ug/mL [ThermoFisher Scientific]) was added to each sample as a viability dye. For apoptosis assay, cells were incubated with annexin V-APC (BioLegend) according to manufacturer’s instructions. CD11b expression and apoptosis were measured by BD LSR II flow cytometer. Two-color cytometry was performed, and data were […]
points, cells were collected and washed with 0.1% EDTA PBS (Ricca Chemical Company, Arlington, TX) followed by only PBS. Cells were then fixed on ice with ice-cold 70% ethanol for 30 minutes . Cells were either stored at -20°C for up to 1 month or processed immediately. Cells were spun down at 450 x g for 10 minutes and stained

IKKe = IKKe (Homo sapiens, UniProt Q14164); test: KiNativ, OCI cells live cell; format: cell-based; settings: 2 h, labeling site Lys1, peptide […]
FLT3 D835H = molecular target: T3, FLT3 D835H (Homo sapiens, UniProt P36888, D835H); test: KdELECT binding assay
T3 construct: purchased Eurofins DiscoverX

DNAPK = DNAPK (Homo sapiens, UniProt P78527); test: KiNativ, OCI cells live cell; format: cell-based; settings: 2 h, labeling site ATP
CDK4 = CDK4 (Homo sapiens, UniProt P11802); test: KdELECT binding assay; design: purchased Eurofins DiscoverX
CK1g3 = CK1g3 (Homo sapiens, UniProt Q9Y6M4); test: KiNativ, OCI cells live cell; format: cell-based; settings: labeling site Lys2, peptide DVKPENFLIGRPGNK
PCTAIRE1 = PCTAIRE1 (Homo sapiens, UniProt Q00536); test: KiNativ, OCI cells live cell; format: cell-based; settings: 2 h, labeling site Lys1, peptide […]
CDK9 = CDK9 (Homo sapiens, UniProt P50750); test: KiNativ, OCI cells live cell; format: cell-based; settings: 2 h
Chain of CDK9 (P50750 whole entry): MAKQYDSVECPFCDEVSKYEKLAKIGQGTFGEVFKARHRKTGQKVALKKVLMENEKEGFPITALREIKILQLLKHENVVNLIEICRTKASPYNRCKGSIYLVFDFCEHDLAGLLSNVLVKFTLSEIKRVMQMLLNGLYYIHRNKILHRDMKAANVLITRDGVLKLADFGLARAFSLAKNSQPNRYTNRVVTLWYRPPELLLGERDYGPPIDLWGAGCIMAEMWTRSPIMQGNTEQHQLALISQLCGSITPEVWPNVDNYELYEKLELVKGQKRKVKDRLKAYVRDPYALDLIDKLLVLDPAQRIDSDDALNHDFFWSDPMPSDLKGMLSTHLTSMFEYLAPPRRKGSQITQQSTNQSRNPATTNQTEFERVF
Chain of CDK9 (O60563 whole entry partner): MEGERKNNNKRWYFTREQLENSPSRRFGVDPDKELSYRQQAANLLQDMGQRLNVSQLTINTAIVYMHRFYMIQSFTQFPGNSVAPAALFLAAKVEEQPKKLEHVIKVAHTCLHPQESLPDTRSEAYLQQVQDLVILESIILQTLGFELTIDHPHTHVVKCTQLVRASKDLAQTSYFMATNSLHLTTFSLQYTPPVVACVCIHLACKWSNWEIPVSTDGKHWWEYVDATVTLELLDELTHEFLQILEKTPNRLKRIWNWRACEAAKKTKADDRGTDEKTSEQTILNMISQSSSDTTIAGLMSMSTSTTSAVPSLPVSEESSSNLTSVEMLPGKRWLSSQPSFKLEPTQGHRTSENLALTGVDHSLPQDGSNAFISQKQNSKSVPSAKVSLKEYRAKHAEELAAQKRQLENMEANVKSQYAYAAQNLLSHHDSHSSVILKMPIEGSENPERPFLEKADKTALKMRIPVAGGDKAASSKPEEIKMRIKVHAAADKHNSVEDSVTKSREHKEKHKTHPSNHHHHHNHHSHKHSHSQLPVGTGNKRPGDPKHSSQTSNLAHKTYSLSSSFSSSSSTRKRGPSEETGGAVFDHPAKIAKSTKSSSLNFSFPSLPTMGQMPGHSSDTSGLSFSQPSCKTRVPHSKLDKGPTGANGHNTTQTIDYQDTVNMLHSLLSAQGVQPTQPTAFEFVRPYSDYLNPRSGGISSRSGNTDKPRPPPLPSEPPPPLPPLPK

PEK = PEK (Homo sapiens, UniProt Q9NZJ5); test: KiNativ, OCI cells live cell; format: cell-based; settings: 2 h, labeling site Lys2, peptide […]

`CN1CCN(Cc2ccc(Nc3ncc(Cl)c(Nc4ccccc4S(=O)(=O)N(C)C)n3)cc2)CC1` [TP-0903] showed an inhibition at 0.1 µM (GSK3A) of 22.6%, an inhibition at 0.1 µM (NEK1) of -4.4% and an inhibition at 0.1 µM (eEF2K) of 12.4%. The inhibition at 0.1 µM (CDK5; labeling site Lys1, peptide NRETHEIVALKR) was 57%, the inhibition at 0.1 µM (CDK5; labeling site Lys2, peptide DLKPQNLLINR) was 55.5% and the inhibition at 0.1 µM (TLK1; labeling site Lys1, peptide YAAVKIHQLNK) was -15.2%. The inhibition at 0.1 µM (TLK1; labeling site Lys2, peptide YLNEIKPPIIHYDLKPGNILLVDGTACGEIK) was -2.5%, the Inhibition (SMG1; peptide DTVTIHSVGGTITILPTKTKPK) was 12.1% and the Inhibition (SMG1; peptide SYPYLFKGLEDLHLDER) was -6.4%. For the same compound, the inhibition at 0.1 µM (RSK2 domain2) was -18.2%, the inhibition at 0.1 µM (CDK6) was 74.1% and the Inhibition [1] was 11.0%. For the same compound, the inhibition at 0.1 µM (Erk5) was 86.8%, the inhibition at 0.1 µM (Erk2) was 22.7% and the Inhibition (SYK; labeling site Activation Loop, peptide AQTHGKWPVK) was 39.8%. For the same compound, the Inhibition (SYK; labeling site Activation Loop, peptide ISDFGLSKALR) was 38.5%, the Inhibition (SYK; labeling site Lys1, peptide TVAVKILK) was 37.9% and the Apoptosis [2] was “significant apoptosis”. It also gave an inhibition at 0.1 µM (IKKe) of 30.5%, a Kd (FLT3 D835H) of 1.9 nM and an inhibition at 0.1 µM (DNAPK; peptide EHPFLVKGGEDLR) of 2.8%. For the same compound, the inhibition at 0.1 µM (DNAPK; peptide KGGSWIQEINVAEK) was 8.4%, the Kd (CDK4) was under 5 nM and the Inhibition (CK1g3) was -14.0%. For the same compound, the inhibition at 0.1 µM (PCTAIRE1) was 94.6%, the inhibition at 0.1 µM (CDK9; labeling site ATP Loop, peptide IGQGTFGEVFKAR) was -30.7% and the inhibition at 0.1 µM (CDK9; labeling site Lys2, peptide DMKAANVLITR) was 32.9%. For the same compound, the inhibition at 0.1 µM (PEK) was -9.6%.
